In article PMC9165921 (Molecular Biology, 2022):
pEC50: −log10 of the molar value.

Tested on: SARS-CoV-2 strain PIK35
Test: microbe, parasite or virus in culture
Format: cell-based
Settings: Severe acute respiratory syndrome coronavirus 2, Vero, 120 h

O=c1nc(NO)ccn1[C@@H]1O[C@H](CO)[C@@H](O)[C@H]1O [N^4-hydroxycytidine]
pEC50: < 5.30
